The text below walks through data of the NIST ThermoML archive (doi:10.1016/j.fluid.2005.03.023).

For data set [1] the following is noted: Crystal; DTA.
Data set [2] in a line: Molar enthalpy of transition or fusion. As to conditions: Crystal; DSC.

Numbers after ± are expanded uncertainties.

Regarding `CC(=O)c1cccc(O)c1` [1-(3-hydroxyphenyl)ethanone], the Normal melting temperature in data set [1] stood at 93.6 ± 0.5 °C. Also, the “Molar enthalpy of transition or fusion” value in data set [2] is 5.58 ± 0.165 kcal/mol.

`CC(=O)c1ccc(O)cc1` [4'-hydroxyacetophenone]: in data set [1], the Normal melting temperature stood at 108.2 ± 0.5 °C. Further, the “Molar enthalpy of transition or fusion” value in data set [2] was 4.07 ± 0.127 kcal/mol.

Consider `CC(=O)c1ccc(N)cc1` [4-acetylaniline], for which the Normal melting temperature in data set [1] is 105.1 ± 0.5 °C. In addition, the “Molar enthalpy of transition or fusion” value in data set [2] is 4.67 ± 0.141 kcal/mol.

As to `CC(=O)Nc1ccccc1` [N-phenylethanamide], the Normal melting temperature in data set [1] amounted to 113.8 ± 0.5 °C. Further, in data set [2], the “Molar enthalpy of transition or fusion” value came to 5.12 ± 0.153 kcal/mol.
